Several values for one entry are separate records, joined by “and”; a condition that tells them apart may be missing. Equal values may be shown once. Read-outs that look alike come from different tables or passages of the source.
Key:
[1] = tested on: mutant GT1b subgenomic luciferase replicons in Huh7-Lunet cells; format: cell-based, Hepatitis C virus genotype 1b; conditions: for sensitivity of the generated mutant replicons compared to WT: site-directed mutant replicons, data not shown; for fold reduction in sensitivity (based on EC50-values) compared to WT replicon: luciferase assay
[2] = tested on: DEB025^res HCV subgenomic replicon (Con1-GT1b) in Huh 9–13 cells; parameters: method as in PMID 19104013; conditions: cited from earlier work
Experimental: (§1) Replicon-containing cells were continuously passaged in these double-selection media. When cultures had adapted to replication in the presence of a particular concentration of DEB025 (i.e. no more massive cell death) the concentration was increased in steps of 0.21 µM (typically every 3 passages).

[3] = tested on: CsA^res HCV subgenomic replicon (Con1-GT1b) in Huh 9–13 cells; parameters: method as in PMID 19104013; conditions: cited from earlier work
[4] = tested on: CsA^res HCV subgenomic replicon (Con1-GT1b) in Huh 9–13 cells; conditions: read-out: EC50, inhibition of HCV replicon RNA, CsA^res Huh 9-13 culture, 72 h treatment, RT-qPCR, mean ± SD, at least three independent experiments
Experimental: as §1
(§2) HCV replicon RNA was quantified by means of RT-qPCR and is expressed as the percentage of HCV replicon RNA of the untreated control cells. Data are mean values±standard deviations for at least three independent experiments.
(§3) When cells suffered from compound pressure, G418 pressure was removed till cells recovered. […] Four independent resistance selection experiments were carried out, three with Huh 9–13 replicons and one with Huh 5–2 replicons.
(§4) HCV replication assays were performed and analysed using published procedures.

[5] = tested on: DEB025^res HCV subgenomic replicon (Con1-GT1b) in Huh 9–13 cells; conditions: read-out: EC50, inhibition of HCV replicon RNA, DEB025^res Huh 9-13 culture, 72 h treatment, RT-qPCR, mean ± SD, at least three independent experiments
Experimental: as §1, §2, §3, §4

[6] = tested on: DEB025^res replicon RNA in Huh7-Lunet cells
Experimental: (§5) HCV replicon RNA was quantified by means of RT-qPCR and is expressed as the percentage of HCV replicon RNA of the untreated control cells. Data are mean values ± standard deviations for at least three independent experiments.
(§6) One day before lipofection, Huh7-Lunet cured cells were seeded in a 25 cm^2 flasks at a cell density of 5.26×10^5 cells. Just before transfection, the cells were washed once with opti-MEM® I (Invitrogen) and incubated for 4 h at 37°C with transfection medium containing: 26.3 µg of RNA, DMRIE-C Reagent (Invitrogen) and opti-MEM I serum free medium. Four hours post transfection, medium was replaced by culture medium without G418. Depending on the proliferation of the cells, G418 was gradually added to the cultures (to a final concentration of 1 mg/ml) to generate stable cell lines.

[7] = tested on: WT replicon RNA in Huh7-Lunet cells; conditions: read-out: EC50, inhibition of replicon RNA, Huh7-Lunet stably transfected with WT replicon RNA, RT-qPCR, mean ± SD
Experimental: as §5, §6

[8] = tested on: recombinant replicon with DEB025^res NS5A sequence in Huh7-Lunet cells
Experimental: (§7) The antiviral phenotype of this construct was evaluated in comparison with a construct into which the NS5A region derived from WT Huh 9–13 cells (which were cultured in parallel), was swapped.
(§8) For comparative reasons also the original unmanipulated vector was included in the analysis. […] Data are mean values ± standard deviations for at least three independent experiments. (C) Replication fitness of the different recombinant replicons. Huh7-Lunet cells were transiently transfected with each of the indicated replicon constructs and replicon RNA replication was quantified by means of a luciferase assay for 4 days post transfection. Data are normalized to the 4 h-value post electroporation to account for differences in electroporation efficiency and is expressed as percentage of the WT-value at 96 h post electroporation. Data are mean values ± standard deviations for at least two independent experiments.
(§9) RNA was isolated from either DEB025^res or WT HCV subgenomic replicon cells using the RNeasy mini kit (Qiagen). First-strand cDNA was synthesized using SuperScript II RT (Invitrogen). The NS5A or NS5B-containing regions were amplified in an AccuPrime Pfx DNA polymerase reaction (Invitrogen) for subsequent cloning into the WT Con1 plasmid. All constructs were sequenced to verify the correct manipulation.
(§10) Huh7-Lunet single-cell suspensions were prepared by trypsinization, washed twice with Opti-MEM® I (Invitrogen) and then resuspended at 1×10∧7 cells per ml in Cytomix containing 2 mM ATP and 5 mM glutathione. Ten µg of in vitro transcribed RNA was mixed with 400 µl cell suspension in a cuvette with a gap width of 4 mm (VWR International) and an ECM 830 Electro Square Porator™ (BTX Harvard Apparatus) was used to deliver 5 pulses at 900 V, 99 µsec. Cells were immediately transferred to 20 ml complete DMEM and seeded as required for the assay. Briefly, 100 or 700 µl aliquots of the cell suspension were seeded in a 96- or 24-well plate (Iwaki), respectively, filled with serial dilutions of the antiviral molecule in complete DMEM.

[9] = tested on: recombinant replicon with WT NS5A sequence in Huh7-Lunet cells; conditions: read-out: EC50, inhibition of replicon replication, replicon engineered to contain WT NS5A sequence, transient, 72 h, luciferase, mean ± SD
Experimental: as §7, §8, §9, §10

[10] = tested on: recombinant replicon with DEB025^res NS5B gene in Huh7-Lunet cells; format: cell-based, Hepatitis C virus genotype 1b; conditions: entire NS5B gene of DEB025^res replicon in WT background, control NS5B from WT cells
Experimental: as §8, §9
Huh7-Lunet single-cell suspensions were prepared by trypsinization, washed twice with Opti-MEM® I (Invitrogen) and then resuspended at 1×10∧7 cells per ml in Cytomix containing 2 mM ATP and 5 mM glutathione. […]

[11] = tested on: WT HCV subgenomic replicon (Con1-GT1b) in Huh 9–13 cells
Excerpt: Huh7 cells containing subgenomic HCV genotype 1b replicon I377/NS3-3′/wt (Huh 9–13) [47], [48] and I389luc-ubi-neo/NS3-3′/5.1 (Huh 5–2) were used to select for resistance.

[12] = tested on: CypA-NS5A interaction
Experimental: We next studied whether the NS5A mutations, either alone or in combination, have an influence on (i) the binding of NS5A to CypA and (ii) the sensitivity of the CypA-NS5A interaction to DEB025.
Glutathione beads were added to the GST-CypA/NS5A-His mixture for 30 min at 4°C and washed. Bound material was eluted and analyzed by Western blotting using anti-His and anti-CypA antibodies. (C) The percentage of NS5A pulled down in the presence of increasing concentrations of DEB025, relative to the amount of NS5A pulled down in the absence of the drug.
NS5A mutants were created by site-directed mutagenesis.
Pull-down experiments were conducted as described previously [55]. Briefly, GST-CypA (100 ng) was mixed with 10 ng of NS5A-His in a total volume of 200 µl for 3 h at 4°C on a rotating wheel. Glutathione beads (25 µl) were added to the GST-CypA/NS5A-His mixture for 30 min at 4°C and samples were washed 3 times thereafter. […] Bound material was then analyzed by Western blotting using anti-CypA and anti-His antibodies as described previously [9]. […] To calculate the percent of NS5A pulled down relative to the amount of NS5A pulled down in the absence of the drug scans of ECL-developed films were analyzed by Bio-Rad densitometer model 620 and quantified by Bio-Rad Program Manager software (Bio-Rad Laboratories, Inc., Hercules, CA). […]

[13] = tested on: HCV subgenomic replicon (Con1-GT1b) in Huh 9–13 cells
[14] = cited from earlier work
Excerpt: (§11) Several CsA-analogues, i.e. NIM811 [19], DEB025 and SCY-635 [20], are currently in preclinical and clinical development. […] We reported earlier on the potent in vitro anti-HCV activity of DEB025 [22] and on the particular characteristics of its anti-HCV activity.

[15] = tested on: HCV; conditions: cited from earlier work; for viral load reduction: genotype 1 null/partial responders, 29 days; for decrease in viral load: phase II
Excerpt: as §11

[16] = tested on: calcineurin; conditions: cited from earlier work
Excerpt: as §11

[17] = biological target: T1, CypA (Homo sapiens, UniProt P62937); conditions: cited from earlier work
T1 construct: made in house

[18] = tested on: replicons resistant to DAA inhibitors of different classes; conditions: cited from earlier work
[19] = tested on: JFH1-derived subgenomic replicon (GT2a); conditions: replicon with mutation near NS5A/NS5B cleavage site (position 464); cited from earlier work

T1 sequence (P62937 whole entry): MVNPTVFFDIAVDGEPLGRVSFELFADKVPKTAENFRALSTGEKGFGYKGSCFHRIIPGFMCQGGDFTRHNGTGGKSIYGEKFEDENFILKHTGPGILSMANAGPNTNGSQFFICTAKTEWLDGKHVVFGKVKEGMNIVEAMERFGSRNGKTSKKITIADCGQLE

## C[C@@]1(O)[C@H](O)[C@@H](CO)O[C@H]1n1ccc(N)nc1=O [2′-C-methylcytidine]
[1]
  sensitivity of the generated mutant replicons compared to WT: retained WT-activity
[2]
  antiviral activity against DEB025^res replicons compared to WT: retained WT-antiviral activity
[3]
  antiviral activity against CsA^res replicons compared to WT: retained WT-antiviral activity

## [N-]=[N+]=N[C@]1(CO)O[C@@H](n2ccc(N)nc2=O)[C@H](O)[C@@H]1O [4′-azidocytidine]
[2]
  antiviral activity against DEB025^res replicons compared to WT: retained WT-antiviral activity
[3]
  antiviral activity against CsA^res replicons compared to WT: retained WT-antiviral activity

## COc1ccc2c(O[C@@H]3C[C@H]4C(=O)N[C@]5(C(=O)O)C[C@H]5/C=C\CCCCC[C@H](NC(=O)OC5CCCC5)C(=O)N4C3)cc(-c3csc(NC(C)C)n3)nc2c1 [BILN2061]
[2]
  antiviral activity against DEB025^res replicons compared to WT: retained WT-antiviral activity
[3]
  antiviral activity against CsA^res replicons compared to WT: retained WT-antiviral activity

## C/C=C/C[C@@H](C)[C@@H](O)[C@H]1C(=O)N[C@@H](CC)C(=O)N(C)[C@H](C)C(=O)N(CC)[C@@H](C(C)C)C(=O)N[C@@H](C(C)C)C(=O)N(C)[C@@H](CC(C)C)C(=O)N[C@@H](C)C(=O)N[C@H](C)C(=O)N(C)[C@@H](CC(C)C)C(=O)N(C)[C@@H](CC(C)C)C(=O)N(C)[C@@H](C(C)C)C(=O)N1C [DEB025, Alisporivir]
[4]
  EC50: 460 ± 260 nM
[5]
  EC50: 2050 ± 560 nM
[6]; cells stably transfected with RNA from DEB025^res culture vs WT, on average
  fold less active than in WT-transfected cell line: 10 fold
[6]; read-out: EC50, inhibition of replicon RNA, Huh7-Lunet stably transfected with RNA from DEB025^res culture, RT-qPCR, mean ± SD, SD
  EC50: 440 ± 70 nM
[7]
  EC50: 40 ± 10 nM
[1]
  fold change in sensitivity compared to WT: 1.28 fold and 1.93 fold
[1]; mutant A241P + R262Q + R318W + D320E
  fold reduction in sensitivity (based on EC50-values) compared to WT replicon: 4.33 fold
[1]; mutant NS5A D320E
  fold reduction in sensitivity (based on EC50-values) compared to WT replicon: 3.92 fold and 3.9 fold
[1]; mutant NS5A R318W
  fold reduction in sensitivity (based on EC50-values) compared to WT replicon: ~2 fold
[1]; mutant NS5B I432V, luciferase assay (Figure S1)
  effect of NS5B I432V on antiviral activity: neither reduced the antiviral activity
[1]; mutant R318W + D320E
  fold reduction in sensitivity (based on EC50-values) compared to WT replicon: 3.79 fold
[8]; read-out: EC50, inhibition of replicon replication, replicon engineered to contain DEB025^res NS5A sequence, transient, 72 h, luciferase, mean ± SD, SD
  EC50: 390 ± 150 nM
[8]; replicon with DEB025^res NS5A vs replicon with WT NS5A
  fold less active than in replicon with WT NS5A sequence: 10 fold
[9]
  EC50: 40 ± 10 nM
[10]
  effect of DEB025^res NS5B gene in WT background on antiviral activity: No reduction in antiviral activity
[11]; 2.05 µM
  effect on WT replicon replication at a fixed concentration: completely inhibits WT replicon replication
[11]; read-out: EC50, inhibition of HCV replicon RNA, WT Huh 9-13 culture, 72 h treatment, RT-qPCR, mean ± SD, at least three independent experiments, SD
  EC50: 30 ± 10 nM
[12]; GST-CypA and His-tagged NS5A pull down, increasing drug concentrations
  effect on the CypA-NS5A interaction: inhibit the CypA-NS5A interaction in a dose-dependent manner
[12]; WT versus mutated NS5A, pull down
  effect on interactions between CypA and WT or mutated NS5A: equally disrupted
[13]; Huh 9-13, stepwise increasing drug with G418, on average
  passages of selective pressure needed to select resistant replicons: 35 passages
[13]; Huh 9-13 / Huh 5-2, stepwise increasing drug with G418, average (four independent experiments for DEB025)
  time of selective pressure needed to select resistant replicons: 20 weeks
[14]; 1000 mg dose, returned to baseline after treatment cessation
  adverse finding: isolated and transient hyperbilirubinemia
[14]; lower doses regimens
  tolerability: very well tolerated
[15]; 400 mg daily (with initial loading dose) combined with pegIFN/RBV
  viral load reduction: −1.96 log10 IU/ml
[15]; 800 mg daily combined with pegIFN/RBV
  viral load reduction: −2.38 log10 IU/ml
[15]; phase I, HCV/HIV-coinfected patients, monotherapy 1200 mg BID, after 15 days
  mean maximal decrease in HCV viral load: −3.6 log10 IU/ml
[15]; treatment-naïve genotype 1 and 4 patients, therapy based on 1000 mg/day DEB025 (combined with pegIFN-α-2a)
  decrease in viral load: −4.75 log10 IU/ml
[15]; treatment-naïve genotype 2 and 3 patients
  decrease in viral load: up to −5.89 log10 IU/ml
[16]
  inhibition of calcineurin: do not inhibit calcineurin
[17]
  affinity to CypA compared with CsA: superior to that of CsA to CypA
[18]
  activity against replicons resistant to DAA inhibitors compared to WT: retained WT-activity
[19]
  fold reduced sensitivity of resistant JFH1-derived replicon: ~5 fold

## CNC(=O)c1c(-c2ccc(F)cc2)oc2cc(N(CCO)S(C)(=O)=O)c(C3CC3)cc12 [HCV796, reference compound]
[1]
  sensitivity of the generated mutant replicons compared to WT: retained WT-activity

## CCC[C@H](NC(=O)[C@@H]1[C@H]2CCC[C@H]2CN1C(=O)[C@@H](NC(=O)[C@@H](NC(=O)c1cnccn1)C1CCCCC1)C(C)(C)C)C(=O)C(=O)NC1CC1 [VX-950]
[1]
  sensitivity of the generated mutant replicons compared to WT: retained WT-activity
[2]
  antiviral activity against DEB025^res replicons compared to WT: retained WT-antiviral activity
[3]
  antiviral activity against CsA^res replicons compared to WT: retained WT-antiviral activity

— PMC2965138, “DEB025 (Alisporivir) Inhibits Hepatitis C Virus Replication by Preventing a Cyclophilin A Induced Cis-Trans Isomerisation in Domain II of NS5A” (PLoS ONE, 2010)
